Measurements published in US20220241314A1, “COMPOSITIONS AND METHODS FOR TREATMENT OF HEPATITIS B VIRUS INFECTION” (priority 2019, published 2022).
{ppp} = triphosphate

Tests used:
IRF3 = assay: Immunofluorescence analysis of IRF3 translocation; format: cell-based, human; details: HepG2-hNTCP cells, 24 hours; F7 10 μM; poly-U/UC PAMP or X-RNA 200 ng/ml in liposome
HBV cccDNA = assay: Subcellular compartment analysis of PF-RC DNA and cccDNA (synchronous infection, cell fractionation); format: cell-based, HBV (Genotype D); details: HepG2-hNTCP, treated from time 0 through 3 dpi; F7 10 μM, poly-U/UC PAMP 100 ng/ml
Protocol: FIG. 4A-4D illustrate subcellular compartment analysis of antiviral activity. (4A) and (4C) Scheme of HBV infection with F7 treatment (4A) or poly-U/UC PAMP treatment (4C). HepG2-hNTCP cultures were inoculated with HBV at moi 1000 Geq/cell for 24 hr. On treatment day 0 the cultures received F7 (10 μM) or poly-U/UC PAMP (100 ng/ml). Cells were harvested for production of Hirt extracts at each time point shown through three days. Parallel cultures were harvested for Western blot analysis to monitor Lamin B1 and Calnexin as markers of […] and cytosol respectively. (4B) and (4D) DNA was analyzed by Southern blot using HBV-specific DNA probe. Viral protein-free DNAs (protein-free Relaxed Circular DNA [PF-RC DNA]and cccDNA) are indicated. The positions of mass markers are indicated. Lower panels show Western blot of Lamin B1 and Calnexin abundance.
Cells were inoculated with HBV for 6 hours at 4° C., then the inoculum was removed, cells rinsed and placed in 37° C. media to initiate synchronous infection (time 0), at which time the cells were treated with F7 (FIG. 4A), or poly-U/UC PAMP (FIG. 4C) through 3 dpi. Whole cell (W), nuclear (N), and cytoplasmic (C) extracts were harvested over the time course, at 3 and 6 hours post-infection, and daily over 1-3 dpi, and PF-RC and cccDNA abundance were analyzed by Southern blot. […] For poly-U/UC PAMP treatment, cells were also harvested over a similar time course (see FIG. 4C).
HBV entry assay and cell fractionation: Cells were inoculated with HBV in presence of 4% PEG for 6 hours at 4°C. To assess HBV entry, inoculum was removed by washing with PBS that included proteinase K and cells were shifted to 37° C. post-attachment. After incubation and treatment, the cells were lysed in a hypotonic buffer (100 MM HEPES, 15 mM MgCl2, 100 mM KCL and Nonidet P-40), and homogenized with a dounce homogenizer. The cytoplasmic fraction was separated from nuclei pellet by centrifugation (6000×g for 5 min at 4° C.). Nuclei pellet was resuspended in extraction buffer (20 mM HEPES, 15 mM MgCl2, 420 mM NaCl, 0.2 mM EDTA and 25% (v/v) Glycerol including DTI and protease inhibitor cocktail). Each cellular fraction was mixed with 1% SDS (v/v) and protein-free DNA was extracted using the Hirt extraction method.

O=C(Nc1ccc2nc(NC(=O)c3ccc4ccccc4c3)sc2c1)c1ccccc1 [F7, N-(6-benzamido-1,3-benzothiazol-2-yl)naphthalene-2-carboxamide]
innate immune activation marked by IRF3 translocation into the nucleus (IRF3): specifically induced innate immune activation | PF-RC DNA in subcellular fractions, Southern blot (HBV cccDNA): accumulation was reduced after 2-3 dpi | cccDNA accumulation, Southern blot (HBV cccDNA): delayed and reduced

B1: poly-U/UC PAMP: ~100 nt PAMP motif from the HCV genome comprising 5′ppp and the poly U/UC region, recognized by RIG-I; formulated in liposome (nucleic acid)
chain: GGCCAUCCUGUUUUUUUCCCUUUUUUUUUUUCUUUUUUUUUUUUUUUUUUUUUUUUUUUUUUUUUUCUCCUUUUUUUUUCCUCUUUUUUUCCUUUUCUUUCCUUU
modifications: RNA, 5' {ppp}, backbone and methylation of C not given here; formulated in liposome
notes: ~100 nt PAMP motif from the HCV genome comprising 5′ppp and the poly U/UC region, recognized by RIG-I; formulated in liposome
innate immune activation marked by IRF3 translocation into the nucleus (IRF3): specifically induced innate immune activation | PF-RC DNA in subcellular fractions, Southern blot (HBV cccDNA): Nuclear PF-RC DNA levels were reduced | cccDNA accumulation, Southern blot (HBV cccDNA): reduction of cccDNA
